Columns and labels:
[1] = Liquid; for mass density / speed of sound: 298.15 K, 101.3 kPa; for speed of sound: Sing-around technique in a fixed-path interferometer
[2] = refractive index (Na D-line) (dimensionless); details: 298.15 K; 101.33 kPa; Liquid; Standard Abbe refractometry
[3] = xn = mol fraction of the nth substance listed; details: 298.15 K, 101.3 kPa, Liquid; for speed of sound: Sing-around technique in a fixed-path interferometer
[4] = refractive index (Na D-line) (dimensionless); xn = mol fraction of the nth substance listed; details: 298.15 K, 101.3 kPa, Liquid, Standard Abbe refractometry

C=COC(C)=O [vinyl acetate]
Details	mass density [kg/m3]	refractive index	speed of sound [m/s]
[1]	925.59	–	1115.6
[2]	–	1.39253	–

Details	vapor or sublimation pressure [kPa]
[1], 346.1 K	101.3

C=COC(C)=O [vinyl acetate] + CCOC(=O)OCC
Details	mass density, [3] [kg/m3]	refractive index, [4]	speed of sound, [3] [m/s]
x1 = 0.043	967.68	1.3826	1174.2
x1 = 0.105	965.65	1.3832	1171.2
x1 = 0.17	963.45	1.38373	1167.9
x1 = 0.193	962.74	1.38396	1166.9
x1 = 0.254	960.55	1.38458	1163.6
x1 = 0.299	958.92	1.385	1161.2
x1 = 0.353	956.87	1.3855	1158.2
x1 = 0.407	954.79	1.38602	1155.2
x1 = 0.458	952.74	1.38655	1152.3
x1 = 0.507	950.71	1.38706	1149.3
x1 = 0.556	948.6	1.38757	1146.4
x1 = 0.598	946.73	1.38804	1143.7
x1 = 0.65	944.3	1.38859	1140.4
x1 = 0.697	942.05	1.38917	1137.2
x1 = 0.744	939.73	1.38968	1134.1
x1 = 0.803	936.72	1.39031	1130.1
x1 = 0.85	934.22	1.39087	1126.7
x1 = 0.901	931.44	1.39143	1123.1
x1 = 0.946	928.87	1.39197	1119.8
x1 = 1	925.59	1.39253	1115.6

CCOC(=O)OCC [diethyl carbonate] + C=COC(C)=O
x2 = 0
Details	mass density [kg/m3]	refractive index	speed of sound [m/s]
[3]	969	–	1176.1
[4]	–	1.38221	–

CCOC(=O)OCC [diethyl carbonate]
Details	mass density [kg/m3]	refractive index	speed of sound [m/s]
[1]	969	–	1176.1
[2]	–	1.38221	–

Details	vapor or sublimation pressure [kPa]
[1], 399.6 K	101.3

CO [methanol] + CCOC(=O)OCC
x1 = 1
Details	mass density [kg/m3]	refractive index	speed of sound [m/s]
[3]	786.56	–	1101.8
[4]	–	1.32634	–

CO [methanol]
Details	mass density [kg/m3]	refractive index	speed of sound [m/s]
[1]	786.56	–	1101.8
[2]	–	1.32634	–

Details	vapor or sublimation pressure [kPa]
[1], 337.9 K	101.3

CCOC(=O)OCC [diethyl carbonate] + CO
Details	mass density, [3] [kg/m3]	refractive index, [4]	speed of sound, [3] [m/s]
x2 = 0	969	1.38221	1176.1
x2 = 0.063	964.93	1.38098	1174.8
x2 = 0.098	962.48	1.38026	1174.1
x2 = 0.159	958.15	1.37901	1171.5
x2 = 0.192	955.62	1.37825	1169.9
x2 = 0.251	950.7	1.3769	1167
x2 = 0.302	946.14	1.37563	1164.3
x2 = 0.371	939.23	1.37345	1160.6
x2 = 0.415	934.4	1.37205	1158.1
x2 = 0.453	929.92	1.3705	1155.9
x2 = 0.49	925.16	1.36915	1153.8
x2 = 0.543	917.68	1.367	1150.2
x2 = 0.592	910.04	1.36457	1146.9
x2 = 0.655	898.92	1.36118	1142.2
x2 = 0.69	892	1.359	1139.5
x2 = 0.75	878.54	1.35486	1134.1
x2 = 0.8	865.37	1.3509	1129.2
x2 = 0.848	850.75	1.34641	1123.8
x2 = 0.897	833.8	1.34105	1117.8
x2 = 0.948	812.41	1.3344	1110.4
